Assay results published in patent US20230286960A1, “ALLOSTERIC CHROMENONE INHIBITORS OF PHOSPHOINOSITIDE 3-KINASE (PI3K) FOR THE TREATMENT OF DISEASE” (Petra Pharma Corporation, priority 2020, published 2023).

Assays:
[1] = target: human full length PIK3CA wild-type (p110α/p85α) (Homo sapiens (Human), UniProt P42336); assay: PI3K-alpha kinase (PIK3CA) activity, wild-type, Transcreener ADP2 FI assay; conditions: PI3K-α (PIK3CA) biochemical
Experimental: (§1) PI3K-Alpha Kinase (PIK3CA) Activity, Wild-Type and H1047R Mutant and Determining IC50 Values for Inhibitors
(§2) Recombinant, catalytically active human full length PIK3KA Wild-type and H1047R mutant were purchased as 1:1 complex of N-terminal 6× his tagged p110 ? (catalytic) and untagged p85 ? (regulatory subunit) from EMD Millipore Sigma (cat. no. 14-602M and 14-792M, respectively). The enzyme stocks were diluted to 5× stocks in buffer (20 mM HEPES pH 7.4, 100 mM NaCl, 0.5 mM EGTA, 0.01% triton-x-100) just before use. PIP2diC8 (Avanti Polar Lipids Inc., cat. no. 850185) or phosphoinositol-4,5-bisphosphate with phosphoserine (PIP2:PS) membrane (Thermo Fisher Scientific, cat. no. PV5100) was used as lipid substrates. PIP2diC8 lyophilized powder and PIP2:PS (1:19) membrane stock (1 mM in PIP2) were separately dissolved in milliQ water to a concentration of 250 uM and stored in −20° C. 10 mM stocks of compounds were serially diluted (3×) in neat DMSO and stored in a dessicator at room temperature. 5× compound stocks in 25% DMSO were prepared fresh from neat DMSO stocks.
(§3) Wild-type (WT) and H1047R mutant protein, along with buffer components (except ATP), were incubated with or without compound at 27° C. for 1 h. After incubation, the reaction was initiated by the addition of 5 uL of 125 uM ATP. A typical assay mixture (25 uL) comprised 40 mM HEPES buffer, pH 7.4, 25 mM MgCl2, 0.01% v/v triton-X-100, 5% v/v DMSO, 20 mM NaCl, 1-5 nM wt or H1047R, 25 uM ATP, and 50 uM PIP2diC8 or PIP2 in membrane. The reaction was allowed to proceed until about […] (2.5 uM ADP) after which time, 10 uL of reaction mixture was quenched with 25 uL of transcreener reagent (Transcreener ADP2 FI assay kit, BellBrook labs, Cat. No. 3013). The contents were incubated at rt for 1 h and fluorescence was measured using a plate reader (Paradigm, Molecular Devices). The same assay was also run at pH 6.0 or 6.4 using MOPS buffer (Fisher BioReagents, CAS 1132-61-2). A calibration curve was generated under identical buffer conditions with varying ADP amounts. Using that, the observed fluorescence was converted to uM ADP. A plot between [ADP] and log[I] yielded the dose-response curves that enabled the calculation of IC50s.

[2] = target: human full length PIK3CA H1047R mutant (p110α/p85α) (Homo sapiens (Human), UniProt P42336, H1047R); assay: PI3K-alpha kinase (PIK3CA) activity, H1047R mutant, Transcreener ADP2 FI assay; conditions: PI3K-α (PIK3CA) biochemical
Sequence of human full length PIK3CA H1047R mutant (p110α/p85α) (P42336 whole entry H1047R): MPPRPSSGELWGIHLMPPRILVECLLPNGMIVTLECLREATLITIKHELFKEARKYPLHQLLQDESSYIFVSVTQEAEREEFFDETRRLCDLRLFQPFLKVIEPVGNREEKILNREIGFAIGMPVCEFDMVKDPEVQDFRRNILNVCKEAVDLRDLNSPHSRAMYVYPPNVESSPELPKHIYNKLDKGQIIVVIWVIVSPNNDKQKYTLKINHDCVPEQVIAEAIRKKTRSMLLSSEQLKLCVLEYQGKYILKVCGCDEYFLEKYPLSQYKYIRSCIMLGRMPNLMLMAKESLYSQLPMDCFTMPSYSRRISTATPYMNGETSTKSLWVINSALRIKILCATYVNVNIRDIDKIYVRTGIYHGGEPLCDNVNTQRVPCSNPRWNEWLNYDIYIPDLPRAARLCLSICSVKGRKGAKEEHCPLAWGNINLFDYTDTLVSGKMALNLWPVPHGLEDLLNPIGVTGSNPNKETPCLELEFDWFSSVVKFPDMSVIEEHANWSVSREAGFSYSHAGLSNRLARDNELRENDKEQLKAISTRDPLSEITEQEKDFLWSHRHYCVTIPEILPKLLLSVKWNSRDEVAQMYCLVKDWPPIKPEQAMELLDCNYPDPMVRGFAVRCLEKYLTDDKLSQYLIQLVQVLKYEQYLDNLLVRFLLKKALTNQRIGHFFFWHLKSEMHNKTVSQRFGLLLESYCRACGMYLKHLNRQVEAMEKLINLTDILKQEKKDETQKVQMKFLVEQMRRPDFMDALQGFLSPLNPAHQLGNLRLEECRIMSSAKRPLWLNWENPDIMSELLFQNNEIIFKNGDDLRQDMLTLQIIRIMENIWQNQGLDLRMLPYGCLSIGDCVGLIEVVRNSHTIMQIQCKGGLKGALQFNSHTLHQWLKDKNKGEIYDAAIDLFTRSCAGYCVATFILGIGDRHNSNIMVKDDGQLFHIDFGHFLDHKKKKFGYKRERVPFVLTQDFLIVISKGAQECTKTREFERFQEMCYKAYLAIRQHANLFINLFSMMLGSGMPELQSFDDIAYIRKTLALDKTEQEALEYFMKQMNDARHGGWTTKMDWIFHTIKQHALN
Sequence of human full length PIK3CA H1047R mutant (p110α/p85α) (P27986 whole entry partner): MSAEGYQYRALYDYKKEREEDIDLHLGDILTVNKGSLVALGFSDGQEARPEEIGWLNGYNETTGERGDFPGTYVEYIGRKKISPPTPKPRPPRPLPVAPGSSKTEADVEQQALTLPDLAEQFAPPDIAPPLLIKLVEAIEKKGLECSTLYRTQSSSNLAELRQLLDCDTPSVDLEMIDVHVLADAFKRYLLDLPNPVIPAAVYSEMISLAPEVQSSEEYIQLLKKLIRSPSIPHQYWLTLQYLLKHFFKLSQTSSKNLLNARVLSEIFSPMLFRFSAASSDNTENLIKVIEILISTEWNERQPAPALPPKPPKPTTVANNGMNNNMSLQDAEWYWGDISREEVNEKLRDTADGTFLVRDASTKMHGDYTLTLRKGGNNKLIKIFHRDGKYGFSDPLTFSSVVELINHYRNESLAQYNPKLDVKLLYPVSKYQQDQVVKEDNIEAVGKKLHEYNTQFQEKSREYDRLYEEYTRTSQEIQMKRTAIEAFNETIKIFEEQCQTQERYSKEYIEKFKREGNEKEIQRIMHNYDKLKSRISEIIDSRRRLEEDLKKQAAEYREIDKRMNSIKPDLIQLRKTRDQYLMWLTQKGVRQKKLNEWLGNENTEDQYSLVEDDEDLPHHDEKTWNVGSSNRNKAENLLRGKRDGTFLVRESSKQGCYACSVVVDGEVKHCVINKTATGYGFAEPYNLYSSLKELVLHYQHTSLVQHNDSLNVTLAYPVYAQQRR
Experimental: as §1, §2, §3

Sequence of human full length PIK3CA wild-type (p110α/p85α) (P42336 whole entry): as the sequence (P42336 whole entry H1047R) above, with R1047H counted along it
Sequence of human full length PIK3CA wild-type (p110α/p85α) (P27986 whole entry partner): as the sequence (P27986 whole entry partner) above

IC50 [1] | IC50 [2] | Compound
> 10000 nM | > 10000 nM | Cc1cc(C(C)N(C)c2ccccc2C(=O)O)c2oc(N3CCC(C)(C)CC3)cc(=O)c2c1 (stereo not drawn) [Example 5, 2-[1-[2-(4,4-Dimethyl-1-piperidyl)-6-methyl-4-oxo-chromen-8-yl]ethyl-methyl-amino]benzoic acid]
> 10000 nM | < 500 nM | Cc1cc(C(C)Nc2ccc(C#N)cc2C(=O)O)c2oc(N3CCC(C)(C)CC3)cc(=O)c2c1 (stereo not drawn) [Example 6, 5-Cyano-2-[1-[2-(4,4-dimethyl-1-piperidyl)-6-methyl-4-oxo-chromen-8-yl]ethylamino]benzoic acid]
> 10000 nM | > 10000 nM | Cc1cc(C(C)Nc2cc(F)ccc2[N+](=O)[O-])c2oc(N3CCC(C)(C)CC3)cc(=O)c2c1 (stereo not drawn) [Example 8, 2-(4,4-Dimethyl-1-piperidyl)-8-[1-(5-fluoro-2-nitro-anilino)ethyl]-6-methyl-chromen-4-one]
> 10000 nM | > 10000 nM | Cc1cc(C(C)Nc2c(Cl)cccc2C(=O)O)c2oc(N3CCC(C)(C)CC3)cc(=O)c2c1 (stereo not drawn) [Example 11, 3-Chloro-2-[1-[2-(4,4-dimethyl-1-piperidyl)-6-methyl-4-oxo-chromen-8-yl]ethylamino]benzoic acid]
> 10000 nM | > 10000 nM | Cc1cc(C(C)Nc2cc3c(cc2C(=O)O)OCO3)c2oc(N3CCC(C)(C)CC3)cc(=O)c2c1 (stereo not drawn) [Example 33, 6-[1-[2-(4,4-Dimethyl-1-piperidyl)-6-methyl-4-oxo-chromen-8-yl]ethylamino]-1,3-benzodioxole-5-carboxylic acid]
> 10000 nM | < 500 nM | Cc1cc(C(C)Nc2ccccc2C(=O)O)c2oc(N3CC(Cl)C3)cc(=O)c2c1 (stereo not drawn) [Example 63, 2-[1-[2-(3-Chloroazetidin-1-yl)-6-methyl-4-oxo-chromen-8-yl]ethylamino]benzoic acid]
> 10000 nM | < 500 nM | Cc1cc(C(C)Nc2ccccc2C(=O)O)c2oc(NCC(C)C)cc(=O)c2c1 (stereo not drawn) [Example 77, 2-[1-[2-(Isobutylamino)-6-methyl-4-oxo-chromen-8-yl]ethylamino]benzoic acid]
> 10000 nM |  | Cc1cc(C(C)Nc2cccc(F)c2C(=O)O)c2oc(N3Cc4ccc(F)cc4C3)cc(=O)c2c1 (stereo not drawn) [Example 238, 2-Fluoro-6-[1-[2-(5-fluoroisoindolin-2-yl)-6-methyl-4-oxo-chromen-8-yl]ethylamino]benzoic acid]
< 500 nM | < 500 nM | Cc1cc([C@@H](C)Nc2ccc(Cl)nc2C(=O)O)c2oc(N3CCC(C)(C)CC3)cc(=O)c2c1 [Example 256, 6-Chloro-3-[[(1R)-1-[2-(4,4-dimethyl-1-piperidyl)-6-methyl-4-oxo-chromen-8-yl]lethyl]amino]pyridine-2-carboxylic acid]
< 500 nM | < 500 nM | Cc1cc([C@@H](C)Nc2ccccc2C(=O)O)c2oc(N3CC(C)(c4ccccc4)C3)c(C)c(=O)c2c1 [Example 274, 2-[[(1R)-1-[3,6-Dimethyl-2-(3-methyl-3-phenyl-azetidin-1-yl)-4-oxo-chromen-8-yl]ethyl]amino]benzoic acid]
< 500 nM | < 500 nM | Cc1cc([C@@H](C)Nc2ccccc2C(=O)O)c2oc(N3CC[C@H](c4ccccc4)C3)c(C)c(=O)c2c1 [Example 286, 2-[[(1R)-1-[3,6-dimethyl-4-oxo-2-[(3R)-3-phenylpyrrolidin-1-yl]chromen-8-yl]ethyl]amino]benzoic acid]
< 500 nM | < 500 nM | Cc1cc(C(C)Nc2ccc(Cl)nc2C(=O)O)c2oc(N3CCC4(CC3)CC4)cc(=O)c2c1 (stereo not drawn) [Example 298, 3-[1-[2-(6-Azaspiro[2.5]octan-6-yl)-6-methyl-4-oxo-chromen-8-yl]ethylamino]-6-chloro-pyridine-2-carboxylic acid]
< 500 nM | < 500 nM | Cc1cc([C@@H](C)Nc2ccc(Cl)nc2C(=O)O)c2oc(N3Cc4ccccc4C3)cc(=O)c2c1 [Example 300, 6-Chloro-3-[[(1R)-1-(2-isoindolin-2-yl-6-methyl-4-oxo-chromen-8-yl)ethyl]amino]pyridine-2-carboxylic acid]
< 500 nM | < 500 nM | Cc1cc([C@@H](C)Nc2ccc(Cl)nc2C(=O)O)c2oc(N3Cc4ccc5c(c4C3)OCO5)cc(=O)c2c1 [Example 301, 6-Chloro-3-[[(1R)-1-[2-(6,8-dihydro-[1,3]dioxolo[4,5-e]isoindol-7-yl)-6-methyl-4-oxo-chromen-8-yl]ethyl]amino]pyridine-2-carboxylic acid]
< 500 nM | < 500 nM | Cc1cc(C(C)Nc2ccc(Cl)nc2C(=O)O)c2oc(N3CCCCC3)c(C)c(=O)c2c1 (stereo not drawn) [Example 305, 6-Chloro-3-[1-[3,6-dimethyl-4-oxo-2-(1-piperidyl)chromen-8-yl]ethylamino]pyridine-2-carboxylic acid]
< 500 nM | < 500 nM | Cc1cc([C@@H](C)Nc2ccc(Cl)nc2C(=O)O)c2oc(N3CCC4(CC3)CC4)c(C)c(=O)c2c1 [Example 306, 3-[[(1R)-1-[2-(6-Azaspiro[2.5]octan-6-yl)-3,6-dimethyl-4-oxo-chromen-8-yl]ethyl]amino]-6-chloro-pyridine-2-carboxylic acid]
< 500 nM | < 500 nM | Cc1cc([C@@H](C)Nc2ccc(Cl)nc2C(=O)O)c2oc(N3Cc4ccc(F)cc4C3)c(C)c(=O)c2c1 [Example 308, 6-Chloro-3-[[(1R)-1-[2-(5-fluoroisoindolin-2-yl)-3,6-dimethyl-4-oxo-chromen-8-yl]ethyl]amino]pyridine-2-carboxylic acid]
< 500 nM | < 500 nM | Cc1cc([C@@H](C)Nc2ccc(Cl)nc2C(=O)O)c2oc(N3CCCCC3)c(C)c(=O)c2c1 [Example 309, 6-Chloro-3-[[(1R)-1-[3,6-dimethyl-4-oxo-2-(1-piperidyl)chromen-8-yl]ethyl]amino]pyridine-2-carboxylic acid]
< 500 nM | < 500 nM | Cc1cc([C@@H](C)Nc2ccc(Cl)nc2C(=O)O)c2oc(N3CCC(F)(F)CC3)c(C)c(=O)c2c1 [Example 310, 6-Chloro-3-[[(1R)-1-[2-(4,4-difluoro-1-piperidyl)-3,6-dimethyl-4-oxo-chromen-8-yl]ethyl]amino]pyridine-2-carboxylic acid]
> 10000 nM | > 10000 nM | Cc1cc(C(C)Nc2ccc(B(O)O)cc2C(=O)O)c2oc(N3CCC(C)(C)CC3)cc(=O)c2c1 (stereo not drawn) [Example 357, 5-Borono-2-[1-[2-(4,4-dimethyl-1-piperidyl)-6-methyl-4-oxo-chromen-8-yl]ethylamino]benzoic acid]
> 10000 nM |  | CNC(=O)C1CCN(c2cc(=O)c3cc(C)cc(C(C)Nc4ccccc4C(=O)O)c3o2)CC1 (stereo not drawn) [Example 371, 2-[1-[6-Methyl-2-[4-(methylcarbamoyl)-1-piperidyl]-4-oxo-chromen-8-yl]ethylamino]benzoic acid]
> 10000 nM |  | COC1CCN(c2cc(=O)c3cc(C)cc(C(C)Nc4ccccc4C(=O)O)c3o2)CC1 (stereo not drawn) [Example 373, 2-[1-[2-(4-Methoxy-1-piperidyl)-6-methyl-4-oxo-chromen-8-yl]ethylamino]benzoic acid]
> 10000 nM |  | Cc1cc(C(C)Nc2ccccc2C(=O)O)c2oc(N3CCC4(CC3)CN(C)C(=O)O4)cc(=O)c2c1 (stereo not drawn) [Example 380, 2-[1-[6-Methyl-2-(3-methyl-2-oxo-1-oxa-3,8-diazaspiro[4.5]decan-8-yl)-4-oxo-chromen-8-yl]ethylamino]benzoic acid]
